Assay results taken from article PMC11052718, “PMF-seq: a highly scalable screening strategy for linking genetics to mitochondrial bioenergetics” (Nature Metabolism, 2024).

Assays:
human LDHD [1] = molecular target: T1, human LDHD (Homo sapiens, UniProt Q86WU2); test: cytochrome c reduction, absorbance at […] nm; format: biochemical; conditions: 200 µM bovine heart cytochrome c as electron acceptor, 50 mM potassium phosphate pH 8.5; 10 mM substrate
T1 construct: ~50 kDa predicted, dimer by gel filtration
T1 sequence (Q86WU2 53-484 isoform Q86WU2-2): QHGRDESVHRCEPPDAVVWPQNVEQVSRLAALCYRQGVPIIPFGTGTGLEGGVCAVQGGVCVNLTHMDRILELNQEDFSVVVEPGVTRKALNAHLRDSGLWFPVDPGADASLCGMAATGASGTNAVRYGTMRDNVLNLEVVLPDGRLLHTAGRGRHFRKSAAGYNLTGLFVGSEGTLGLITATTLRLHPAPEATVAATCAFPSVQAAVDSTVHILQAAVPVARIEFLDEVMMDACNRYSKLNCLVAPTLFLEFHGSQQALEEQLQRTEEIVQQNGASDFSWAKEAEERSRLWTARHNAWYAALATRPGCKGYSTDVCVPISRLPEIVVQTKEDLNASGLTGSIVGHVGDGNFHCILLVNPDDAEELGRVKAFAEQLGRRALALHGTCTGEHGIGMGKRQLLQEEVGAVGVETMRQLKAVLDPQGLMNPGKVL

human LDHD [2] = molecular target: T1, human LDHD; test: cytochrome c reduction, absorbance at […] nm; format: biochemical; conditions: 200 µM bovine heart cytochrome c as electron acceptor, 50 mM potassium phosphate pH 8.5
[3] = molecular target: human D-lactate dehydrogenase (LDHD) isoform 2 (Komagataella phaffii | human); test: SEC; Superdex 200 10/300 GL, after elution from Talon cobalt resin; running buffer not stated

With `CC[C@@H](O)C(=O)O` [D-2-hydroxybutyrate] the “relative initial rate at 10 mM” value (human LDHD [1]) was “we identified D-2-hydroxybutyrate as another LDHD substrate that can be used to reduce cytochrome c”.
`C[C@@H](O)C(=O)O` [D-lactate] was tested, and the Km (human LDHD [2]) was 112 µM.
Compound “human D-lactate dehydrogenase (LDHD) isoform 2 (enzyme)” has a stoichiometry N [3] of 2.
